This assay deals with M. tuberculosis sp. 210. In words: Tuberculostatic activity, classical test-tube method of successive dilution. The assay is classed as cell-based. As to conditions: Mycobacterium tuberculosis; sp. 210, wild strain resistant to PAS, INH, ETB, RFP.

Converted amounts (≈) assume the structure as drawn.

In turn, `NC(=NS(=O)(=O)c1cnccc1Cl)c1ccccn1` [Compound 2, N′-[(4-Chloropyridin-3-yl)sulfonyl]-2-pyridinecarboximidamide] had an MIC of 50 µg/mL (≈ 168 µM). In the case of `NC(=NS(=O)(=O)c1ccccc1Cl)c1ncccn1` [Compound 7, N′-[(2-Chlorophenyl)sulfonyl]pyrimidine-2-carboximidamide] it was 50 µg/mL (≈ 168 µM); in that of `NC(=NS(=O)(=O)c1cnccc1Cl)c1ncccn1` [Compound 8, N′-[(4-Chloropyridin-3-yl)sulfonyl]pyrimidine-2-carboximidamide], 50 µg/mL (≈ 168 µM); in that of `NC(=NS(=O)(=O)c1cnccc1Cl)c1cnccn1` [Compound 10, N′-[(4-Chloropyridin-3-yl)sulfonyl]pyrazine-2-carboximidamide], 50 µg/mL (≈ 168 µM).

`NNC(=O)c1ccncc1` [INH, isoniazid, reference compound] displayed an MIC of 1.1 µg/mL (≈ 8.02 µM).

In general, MIC refers to the smallest concentration in the dilution series that meets the test's criterion for growth inhibition. Read a low MIC as a more susceptible organism.

The values above are taken from publication PMC4494771, “Synthesis, structure, and biological activity of novel heterocyclic sulfonyl-carboximidamides” (Monatshefte Fur Chemie, 2013).
